Experiment: Surface Area (BET method)
Type: physicochemical
Conditions: isolated palbociclib free base solid

Row | Structure (SMILES) | Surface Area (BET method) [m^2/g]
1 | CC(=O)c1c(C)c2cnc(Nc3ccc(N4CCNCC4)cn3)nc2n(C2CCCC2)c1=O [Example 9, 6-acetyl-8-cyclopentyl-5-methyl-2-{[5-(piperazin-1-yl)pyridin-2yl]amino}-pyrido[2,3-d]pyrimidin-7(8H)-one] | 3.61
2 | CC(=O)c1c(C)c2cnc(Nc3ccc(N4CCNCC4)cn3)nc2n(C2CCCC2)c1=O [Example 11, 6-acetyl-8-cyclopentyl-5-methyl-2-{[5-(piperazin-1-yl)pyridin-2yl]amino}-pyrido[2,3-d]pyrimidin-7(8H)-one] | 9.38

— patent US10807978B2, “Process for preparation of palbociclib” (DR. REDDY'S LABORATORIES LIMITED, priority 2016, dated 2020)
